Results: ChEMBL document CHEMBL1201862, “PubChem BioAssay data set” (2004)
Calls of active or inactive are those of the source.

Key:
CAAX prenyl protease 2 [1] = target: T1, CAAX prenyl protease 2 (Saccharomyces cerevisiae S288c, UniProt Q03530); type: biochemical
T1 sequence (Q03530 whole entry): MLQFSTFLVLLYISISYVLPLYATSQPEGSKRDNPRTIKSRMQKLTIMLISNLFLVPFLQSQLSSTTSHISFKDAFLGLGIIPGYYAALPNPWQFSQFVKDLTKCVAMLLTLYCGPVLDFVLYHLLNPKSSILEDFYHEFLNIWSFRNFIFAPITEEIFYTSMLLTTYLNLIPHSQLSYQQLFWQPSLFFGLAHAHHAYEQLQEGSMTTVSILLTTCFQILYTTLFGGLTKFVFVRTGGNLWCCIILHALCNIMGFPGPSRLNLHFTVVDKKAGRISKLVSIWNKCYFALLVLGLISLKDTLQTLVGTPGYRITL

CAAX prenyl protease 2 [2] = target: T1, CAAX prenyl protease 2; assay: yeast Rce1 CaaX protease inhibitors, dose response, biochemical, plate reader, dry powder retest (AID 588851)
[3] = target: Glycogen synthase kinase-3 alpha (Homo sapiens, UniProt P49840); assay: Inhibition of Human GSK-3 alpha Activity Measured in Biochemical System Using Microfluidics - 2063-06_Inhibitor_Dose_DryPowder_Activity_Set2. [Related pubchem assays (depositor defined):AID2709]
[4] = target: Glycogen synthase kinase-3 beta (Homo sapiens, UniProt P49841); assay: Inhibition of Human GSK-3 beta Activity Measured in Biochemical System Using Microfluidics - 2063-05_Inhibitor_Dose_DryPowder_Activity_Set2. [Related pubchem assays (depositor defined):AID2709]
[5] = target: ATP-dependent molecular chaperone HSP82 (Candida albicans (strain WO-1) (Yeast), UniProt C4YTQ8); assay: loss of DOC-induced GRE-beta-galactosidase reporter signal, dose response, Hsp90 inhibitor project, S. cerevisiae, luminescence (AID 2400); type: functional, cell-based;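 note: beta-galactosidase luminescence from glucocorticoid response element reporter as proxy for Hsp90 function; inhibitor potency where signal loss means Hsp90 inhibition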
[6] = inhibitors of intracellular T. cruzi replication, confirmation, NIH3T3 host cells, beta-gal luminescence (AID 2044); type: functional, cell-based;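 note: intracellular parasites grown in NIH/3T3 mouse fibroblasts as host cells; luminescent beta-galactosidase reporter signal from transgenic T. cruzi replicating inside host cells; inhibitors lower the luminescence signal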
NIH3T3 = assay: cytotoxicity in NIH-3T3 fibroblasts, dose response, cytotoxicity control for antifungal drug resistance project, cell-based, Alamar Blue, fluconazole, dry powder (AID 488809); type: functional; conditions: Mus musculus
Candida albicans [7] = assay: C. albicans growth inhibition with fluconazole, dose response, antifungal resistance reversal project, CaCi-2 strain, Alamar Blue, dry powder, set 2 (AID 488930); type: functional, organism-based
Candida albicans [8] = assay: growth inhibition of azole-resistant C. albicans, dose response, CaCi-8 strain, Alamar Blue, dry powder, set 2 (AID 488909); type: functional, organism-based
HEK293 = assay: inhibitors of LMP1-driven NF-kB reporter, dose response, cell-based, HEK293, luciferase, cherry-pick (AID 588343); type: functional; conditions: Homo sapiens
[9] = cytotoxicity toward NIH3T3 fibroblasts, dose response, counter-screen, cell-based, ATP luminescence, mouse fibroblasts (AID 2010); type: functional;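 note: cells exposed to compound for about 90 hours before reading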
[10] = C. albicans growth with fluconazole, confirmation, fluorescence, retest (AID 2467); type: functional, cell-based
Candida albicans [11] = assay: fluconazole resistance reversal in C. albicans, dose response, CaCi-2 strain, Alamar Blue, dry powder, set 4 (AID 488943); type: functional, organism-based
Protein Wnt-3a = Protein Wnt-3a (Mus musculus, UniProt P27467); assay: Wnt3a-driven reporter signaling inhibition, dose response, selectivity assay for Gli-SUFU antagonist project, Wnt-LIGHT cells, luminescence (AID 651570); type: functional; conditions: read-out: IC50_Mean;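 note: Wnt-LIGHT reporter cells stimulated with conditioned medium from Wnt3a-producing cells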
Candida albicans [12] = assay: single-agent growth inhibition of C. albicans, dose response, counter-screen for antifungal drug resistance project, C. albicans CaCi-2, dry powder (AID 488802); type: functional, organism-based
[13] = NIH-3T3 fibroblast cytotoxicity, dose response, cytotoxicity control, cell-based, fluorescence, Alamar Blue, secondary assay (AID 2327); type: functional;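 note: NIH-3T3 mouse fibroblasts cultured with fluconazole at 8 µg/mL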
[14] = target: Serine/threonine-protein phosphatase (Candida dubliniensis (strain CD36 / CBS 7987 / NCPF 3949 / NRRLY-17841) (Yeast), UniProt B9W6M3); assay: calcineurin pathway inhibitors in yeast reporter, dose response, S. cerevisiae, CDRE-lacZ, luminescence, secondary (AID 2388); type: functional, cell-based;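 note: yeast reporter cells carrying a calcineurin-responsive lacZ construct stimulated with calcium chloride; luminescent beta-galactosidase reporter signal in whole cells rather than isolated phosphatase activity; potency for inhibition where a drop in reporter signal means calcineurin blockade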
Candida albicans [15] = assay: growth inhibition of resistant C. albicans, dose response, CaCi-8, fluconazole, Alamar Blue, dry powder (AID 488807); type: functional, organism-based
[16] = microbe, parasite or virus in culture; type: functional; conditions: Mycobacterium tuberculosis
[17] = Vero cell cytotoxicity, cytotoxicity control for M. tuberculosis inhibitor project, purified and synthesized samples, set 3 (AID 504684); type: functional
[18] = target: Heat shock protein HSP 90-alpha (Homo sapiens, UniProt P07900); type: functional, organism-based
[19] = A Cell Based Secondary Assay to Explore Cytotoxicity in HepG2 Cells of Compounds that Modulate Mycobacterium tuberculosis in Media Containing Glycerol versus Media without Glycerol (2).; type: functional
[20] = A Cell Based Secondary Assay to Explore Cytotoxicity in THP-1 Cells of Compounds that Modulate Mycobacterium tuberculosis in Media Containing Glycerol versus Media without Glycerol (2).; type: functional

Protein Wnt-3a, sequence (P27467 whole entry): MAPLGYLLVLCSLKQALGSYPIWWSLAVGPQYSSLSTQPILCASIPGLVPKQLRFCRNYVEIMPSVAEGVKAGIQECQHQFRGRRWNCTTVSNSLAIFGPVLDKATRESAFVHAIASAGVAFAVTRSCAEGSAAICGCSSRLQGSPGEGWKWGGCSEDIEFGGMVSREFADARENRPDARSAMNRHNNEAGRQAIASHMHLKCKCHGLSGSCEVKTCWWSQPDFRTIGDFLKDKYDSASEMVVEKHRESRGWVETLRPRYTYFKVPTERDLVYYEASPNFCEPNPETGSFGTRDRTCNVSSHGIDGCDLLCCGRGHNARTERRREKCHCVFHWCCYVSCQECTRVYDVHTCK
Serine/threonine-protein phosphatase, sequence (B9W6M3 whole entry): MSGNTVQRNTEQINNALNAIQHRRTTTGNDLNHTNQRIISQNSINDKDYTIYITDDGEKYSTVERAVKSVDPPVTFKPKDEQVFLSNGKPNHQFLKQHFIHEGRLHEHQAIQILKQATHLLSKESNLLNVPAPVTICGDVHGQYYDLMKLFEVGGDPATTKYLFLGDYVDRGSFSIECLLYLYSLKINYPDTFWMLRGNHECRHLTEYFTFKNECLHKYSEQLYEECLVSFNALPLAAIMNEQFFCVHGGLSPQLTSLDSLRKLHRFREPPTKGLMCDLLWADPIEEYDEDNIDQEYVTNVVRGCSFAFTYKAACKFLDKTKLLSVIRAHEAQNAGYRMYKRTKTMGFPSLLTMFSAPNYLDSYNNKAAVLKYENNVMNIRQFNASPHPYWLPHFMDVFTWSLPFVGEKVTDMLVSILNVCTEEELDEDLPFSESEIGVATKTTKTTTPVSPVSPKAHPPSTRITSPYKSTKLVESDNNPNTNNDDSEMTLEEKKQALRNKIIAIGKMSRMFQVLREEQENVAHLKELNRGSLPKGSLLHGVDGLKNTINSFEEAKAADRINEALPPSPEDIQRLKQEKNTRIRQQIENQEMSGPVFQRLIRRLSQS
ATP-dependent molecular chaperone HSP82, sequence (C4YTQ8 whole entry): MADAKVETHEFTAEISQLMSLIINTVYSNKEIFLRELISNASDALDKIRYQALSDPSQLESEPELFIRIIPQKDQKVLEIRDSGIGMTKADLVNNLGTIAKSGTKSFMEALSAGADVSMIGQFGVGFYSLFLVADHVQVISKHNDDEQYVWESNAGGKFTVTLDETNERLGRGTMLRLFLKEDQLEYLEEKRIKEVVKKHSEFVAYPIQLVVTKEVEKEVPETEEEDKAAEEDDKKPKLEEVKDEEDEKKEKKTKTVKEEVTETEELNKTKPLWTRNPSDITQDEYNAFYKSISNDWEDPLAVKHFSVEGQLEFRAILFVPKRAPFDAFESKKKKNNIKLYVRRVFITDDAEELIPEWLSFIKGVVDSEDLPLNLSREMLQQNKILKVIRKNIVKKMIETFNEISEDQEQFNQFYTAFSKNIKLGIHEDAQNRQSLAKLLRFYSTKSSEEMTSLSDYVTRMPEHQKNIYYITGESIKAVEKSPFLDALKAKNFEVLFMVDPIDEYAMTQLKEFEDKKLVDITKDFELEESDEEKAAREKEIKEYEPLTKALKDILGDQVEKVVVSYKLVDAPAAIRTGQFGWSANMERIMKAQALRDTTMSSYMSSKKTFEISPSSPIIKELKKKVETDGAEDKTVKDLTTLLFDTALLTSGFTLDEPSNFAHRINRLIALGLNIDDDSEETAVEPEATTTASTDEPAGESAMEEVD
Glycogen synthase kinase-3 beta, sequence (P49841 whole entry): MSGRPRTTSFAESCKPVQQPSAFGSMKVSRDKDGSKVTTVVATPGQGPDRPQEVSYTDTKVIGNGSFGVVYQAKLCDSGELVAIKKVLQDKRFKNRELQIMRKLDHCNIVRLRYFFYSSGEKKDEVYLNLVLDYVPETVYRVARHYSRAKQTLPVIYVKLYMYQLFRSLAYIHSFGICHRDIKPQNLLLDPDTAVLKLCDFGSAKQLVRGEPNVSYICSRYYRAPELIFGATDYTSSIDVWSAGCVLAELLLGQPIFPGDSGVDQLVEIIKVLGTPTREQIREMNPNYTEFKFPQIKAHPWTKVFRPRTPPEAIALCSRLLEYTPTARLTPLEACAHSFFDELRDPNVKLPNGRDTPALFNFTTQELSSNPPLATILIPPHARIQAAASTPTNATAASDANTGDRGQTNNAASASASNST
Glycogen synthase kinase-3 alpha, sequence (P49840 whole entry): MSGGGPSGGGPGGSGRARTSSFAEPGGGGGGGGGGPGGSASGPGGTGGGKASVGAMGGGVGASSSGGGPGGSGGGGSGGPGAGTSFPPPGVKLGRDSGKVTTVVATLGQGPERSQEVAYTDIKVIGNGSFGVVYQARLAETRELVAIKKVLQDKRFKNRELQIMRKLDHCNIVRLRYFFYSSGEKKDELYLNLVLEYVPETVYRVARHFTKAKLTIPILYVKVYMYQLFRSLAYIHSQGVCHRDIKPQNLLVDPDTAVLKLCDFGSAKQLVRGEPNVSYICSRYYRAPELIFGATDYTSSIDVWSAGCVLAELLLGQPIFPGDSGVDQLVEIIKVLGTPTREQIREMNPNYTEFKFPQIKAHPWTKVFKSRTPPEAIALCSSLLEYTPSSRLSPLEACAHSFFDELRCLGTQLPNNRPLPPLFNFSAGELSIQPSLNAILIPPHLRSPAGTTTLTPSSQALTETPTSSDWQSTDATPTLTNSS

CN(C(=O)COC(=O)c1cn(-c2ccccc2)nc1-c1ccccc1)C1CCS(=O)(=O)C1 (centres undefined)
AC50 (CAAX prenyl protease 2 [1]): 679 nM (active)
AC50 (CAAX prenyl protease 2 [2]): 25.1 µM (active)

COC(=O)c1nnn(-c2nonc2N)c1CSc1nc2ccccc2s1
AC50 [3]: 4.24 µM (active)
AC50 [4]: 1.31 µM (active)

O=C(c1ccc(Cl)cc1)N1CCN(c2ccnc3cc(Cl)ccc23)CC1
EC50 [5]: > 150 µM (inactive)
EC50 [6]: 1.34 µM (active)
AC50 (NIH3T3): 22.9 µM (active)
AC50 (Candida albicans [7]): 522 nM (active)
AC50 (Candida albicans [8]): 3.46 µM (active)
AC50 (HEK293): 16.4 µM (active)
EC50 [9]: > 60 µM (not active)
EC50 [10]: 742 nM (active)
AC50 (Candida albicans [11]): 306 nM (active)
AC50 (Candida albicans [11]; Candida albicans): 362 nM (active)
IC50 (Protein Wnt-3a): 8.3 µM (active)
AC50 (Candida albicans [12]): 3.73 µM (active)
EC50 [13]: > 150 µM (inactive)
EC50 [14]: > 180 µM (inactive)
AC50 (Candida albicans [15]): 870 nM (active)

CCC(C)Nc1ccc(NC(C)CC)cc1 (centres undefined)
CC50 [16]: 15.9 µM (active)
CC50 [17]: 11.2 µM (active)
AC50 [18]: 4.52 µM (active)
CC50 [19]: 6.68 µM (active)
CC50 [20]: 3.8 µM (active)
